Assay results from patent US20260028326A1, “COMPOUND BASED ON ISOINDOLINE-SUBSTITUTED GLUTARIMIDE BACKBONE AND USE THEREOF” (GLUETACS THERAPEUTICS (SHANGHAI) CO., LTD., priority 2022, published 2026).

Tests used:
IKZF1 protein = IKZF1 protein (Homo sapiens (Human), UniProt Q13422+Q96SW2); assay: Western-blot assay of substrate protein degradation in hPBMC, IKZF1; type: cell-based; conditions: hPBMC cells, compound 500 nM, 24 hours, Western blot
Protocol: (§1) After treating the cells with the compounds for 24 hours, the cells were collected and lysed using RIPA protein lysate containing phosphatase inhibitors. The lysate was then placed on ice for 30-60 minutes and centrifuged. The supernatant was aspirated as the extracted total cell protein. The protein concentration of the supernatant was determined using the conventional BCA (Bicinchoninic Acid) assay. The supernatant was then mixed with 4×SDS sample loading buffer, denatured at 95° C. for 5 minutes, and then subjected to SDS-PAGE electrophoresis on a polyacrylamide gel, followed by transfer to a nitrocellulose membrane (NC membrane). The membrane was blocked with blocking buffer at room temperature for 1-2 hours, and then antibody incubation and detection were carried out according to the antibody instructions provided by Cell Signaling Technology.
(§2) Half-Maximal Degradation Concentration value (the drug concentration required for degrading proteins by 50%, abbreviated as DC50) reads method: comparing the gray values of the Western blotting bands for the drug treatment with the gray values of the Western blotting band for the DMSO control, and reading the drug concentration range corresponding to the gray value of the Western blotting bands for the drug treatment which is equal to half of the gray value of the Western blotting band for the DMSO control.
(§3) DC50 value could also be calculated as follows: using software ImageJ to quantify the gray values of the Western blotting bands for the drug treatment, fitting the relationship curve between drug concentrations and gray values, and from the fitted curve, calculating the drug concentration corresponding to half of the gray value of the Western blotting band for the DMSO control.

IKZF3 protein = IKZF3 protein (Homo sapiens (Human), UniProt Q96SW2+Q9UKT9); assay: Western-blot assay of substrate protein degradation in hPBMC, IKZF3; type: cell-based; conditions: hPBMC cells, compound 500 nM, 24 hours, Western blot
Chain of IKZF3 protein (Q9UKT9 whole entry): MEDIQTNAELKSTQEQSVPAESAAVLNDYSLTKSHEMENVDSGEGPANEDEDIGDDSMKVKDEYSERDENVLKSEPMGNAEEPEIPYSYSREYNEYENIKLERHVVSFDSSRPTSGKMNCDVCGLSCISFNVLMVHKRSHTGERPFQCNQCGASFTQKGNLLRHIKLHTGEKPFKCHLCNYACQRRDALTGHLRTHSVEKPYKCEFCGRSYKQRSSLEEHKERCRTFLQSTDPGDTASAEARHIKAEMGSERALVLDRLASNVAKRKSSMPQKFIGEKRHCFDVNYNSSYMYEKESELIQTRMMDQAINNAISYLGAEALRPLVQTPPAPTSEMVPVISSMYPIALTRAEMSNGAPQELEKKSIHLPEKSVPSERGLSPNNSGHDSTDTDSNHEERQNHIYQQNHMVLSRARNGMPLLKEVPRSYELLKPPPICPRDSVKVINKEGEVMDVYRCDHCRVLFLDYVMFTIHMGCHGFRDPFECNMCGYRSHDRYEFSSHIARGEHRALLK
Chain of IKZF3 protein (Q96SW2 whole entry): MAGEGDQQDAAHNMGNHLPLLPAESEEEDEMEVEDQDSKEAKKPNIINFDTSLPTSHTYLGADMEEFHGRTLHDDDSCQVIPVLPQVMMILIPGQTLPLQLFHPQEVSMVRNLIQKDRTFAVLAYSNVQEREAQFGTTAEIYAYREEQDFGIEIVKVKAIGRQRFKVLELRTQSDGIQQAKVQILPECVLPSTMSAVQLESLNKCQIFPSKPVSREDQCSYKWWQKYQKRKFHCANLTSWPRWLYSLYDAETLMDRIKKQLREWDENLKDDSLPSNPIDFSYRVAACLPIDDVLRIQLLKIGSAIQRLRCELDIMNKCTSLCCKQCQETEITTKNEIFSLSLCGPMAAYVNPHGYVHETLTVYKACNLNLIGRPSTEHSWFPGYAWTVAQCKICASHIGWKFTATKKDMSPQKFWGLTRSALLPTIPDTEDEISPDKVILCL
Chain of IKZF3 protein (Q16531 whole entry partner): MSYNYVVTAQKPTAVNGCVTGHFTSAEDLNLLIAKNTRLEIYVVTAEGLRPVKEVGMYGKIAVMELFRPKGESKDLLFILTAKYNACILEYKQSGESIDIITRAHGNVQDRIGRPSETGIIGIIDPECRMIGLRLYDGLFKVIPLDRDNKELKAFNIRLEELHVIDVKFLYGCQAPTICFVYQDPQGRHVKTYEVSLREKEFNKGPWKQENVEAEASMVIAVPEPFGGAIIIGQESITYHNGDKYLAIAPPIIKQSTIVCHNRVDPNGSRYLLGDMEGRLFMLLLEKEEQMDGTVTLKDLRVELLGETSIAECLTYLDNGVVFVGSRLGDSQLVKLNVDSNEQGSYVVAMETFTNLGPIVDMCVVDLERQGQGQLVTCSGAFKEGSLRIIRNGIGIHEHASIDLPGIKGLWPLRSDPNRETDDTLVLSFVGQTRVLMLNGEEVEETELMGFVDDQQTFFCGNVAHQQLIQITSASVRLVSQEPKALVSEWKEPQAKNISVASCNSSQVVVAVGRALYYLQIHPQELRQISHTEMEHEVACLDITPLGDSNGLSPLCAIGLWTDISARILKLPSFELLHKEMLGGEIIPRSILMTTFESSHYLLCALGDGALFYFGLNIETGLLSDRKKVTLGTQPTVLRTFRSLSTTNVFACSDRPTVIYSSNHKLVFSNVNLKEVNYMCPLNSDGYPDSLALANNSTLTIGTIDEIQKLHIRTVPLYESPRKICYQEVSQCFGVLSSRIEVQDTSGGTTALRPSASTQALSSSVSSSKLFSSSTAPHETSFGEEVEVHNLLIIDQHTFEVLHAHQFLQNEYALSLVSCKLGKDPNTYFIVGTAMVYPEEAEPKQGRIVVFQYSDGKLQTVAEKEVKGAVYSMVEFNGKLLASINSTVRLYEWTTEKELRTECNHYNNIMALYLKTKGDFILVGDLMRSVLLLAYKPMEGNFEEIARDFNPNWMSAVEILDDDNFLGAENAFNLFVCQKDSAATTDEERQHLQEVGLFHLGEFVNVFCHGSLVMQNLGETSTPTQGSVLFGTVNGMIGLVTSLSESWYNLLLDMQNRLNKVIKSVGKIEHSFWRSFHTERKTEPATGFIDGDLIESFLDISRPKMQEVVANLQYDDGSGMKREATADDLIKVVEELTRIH
Protocol: as §1, §2, §3

GSPT1 protein = GSPT1 protein (Homo sapiens (Human), UniProt P15170+Q96SW2); assay: Western-blot assay of substrate protein degradation in hPBMC, GSPT1; type: cell-based; conditions: hPBMC cells, compound 500 nM, 24 hours, Western blot
Chain of GSPT1 protein (P15170 whole entry): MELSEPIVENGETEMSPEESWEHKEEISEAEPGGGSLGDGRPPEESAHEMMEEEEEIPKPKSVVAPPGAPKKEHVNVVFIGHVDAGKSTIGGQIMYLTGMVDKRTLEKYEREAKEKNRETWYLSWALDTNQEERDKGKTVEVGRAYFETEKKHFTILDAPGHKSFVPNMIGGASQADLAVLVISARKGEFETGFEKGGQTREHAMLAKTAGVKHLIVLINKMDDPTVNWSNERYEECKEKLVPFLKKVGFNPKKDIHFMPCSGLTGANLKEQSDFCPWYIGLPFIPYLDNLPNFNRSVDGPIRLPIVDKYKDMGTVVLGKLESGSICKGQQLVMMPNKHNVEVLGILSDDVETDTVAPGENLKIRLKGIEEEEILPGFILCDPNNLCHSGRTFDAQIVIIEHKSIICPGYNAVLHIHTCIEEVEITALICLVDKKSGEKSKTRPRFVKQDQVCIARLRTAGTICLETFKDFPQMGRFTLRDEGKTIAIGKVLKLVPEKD
Chain of GSPT1 protein (Q96SW2 whole entry): as the sequence (Q96SW2 whole entry) above
Chain of GSPT1 protein (Q16531 whole entry partner): as the sequence (Q16531 whole entry partner) above
Protocol: as §1, §2, §3

[1] = molecular target: human Cereblon WT GST-tagged protein (Homo sapiens (Human), UniProt Q96SW2); assay: CRBN-binding affinity, HTRF (CEREBLON BINDING kit)
Chain of human Cereblon WT GST-tagged protein (Q96SW2 whole entry): as the sequence (Q96SW2 whole entry) above
Outline: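 HTRF competition readout: compounds compete with a thalidomide-Re conjugate for GST-tagged wild-type human CRBN detected via Eu-labelled anti-GST antibody. Inhibition rate derived relative to protein-free blank wells.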

Chain of IKZF1 protein (Q13422 whole entry): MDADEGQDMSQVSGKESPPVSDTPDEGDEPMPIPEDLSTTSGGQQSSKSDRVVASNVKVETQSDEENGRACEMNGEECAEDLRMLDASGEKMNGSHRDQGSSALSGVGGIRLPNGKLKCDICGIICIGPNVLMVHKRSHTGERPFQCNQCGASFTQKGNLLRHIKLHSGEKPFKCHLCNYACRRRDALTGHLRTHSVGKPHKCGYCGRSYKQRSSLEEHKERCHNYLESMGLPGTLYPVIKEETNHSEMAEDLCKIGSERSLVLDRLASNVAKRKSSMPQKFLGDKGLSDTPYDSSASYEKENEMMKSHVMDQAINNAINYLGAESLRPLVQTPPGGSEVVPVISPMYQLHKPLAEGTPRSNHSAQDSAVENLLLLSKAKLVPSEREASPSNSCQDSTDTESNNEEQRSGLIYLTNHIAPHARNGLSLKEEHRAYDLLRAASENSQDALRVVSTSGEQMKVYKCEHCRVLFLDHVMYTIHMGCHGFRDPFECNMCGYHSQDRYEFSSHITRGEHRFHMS
Chain of IKZF1 protein (Q96SW2 whole entry): as the sequence (Q96SW2 whole entry) above
Chain of IKZF1 protein (Q16531 whole entry partner): as the sequence (Q16531 whole entry partner) above

SMILES	residual substrate protein level, IKZF1 (IKZF1 protein)	residual substrate protein level, IKZF3 (IKZF3 protein)	residual substrate protein level, GSPT1 (GSPT1 protein)	IC50 [1]
O=C1CCC(N2C(=O)c3ccc(CN4CCN(CC5=C(c6ccc(F)cc6)CCCC5)CC4)cc3C2=O)C(=O)N1 (stereo not drawn) [GT-05464, 2-(2,6-dioxopiperidin-3-yl)-5-((4-((4′-fluoro-3,4,5,6-tetrahydro-[1,1′-biphenyl]-2-yl)methyl)piperazin-1-yl)methyl)isoindoline-1,3-dione]	B (B represents a residual substrate protein level of >50%)	A (A represents a residual substrate protein level of <50%)	B (B represents a residual substrate protein level of >50%)	–
CC1(C)CCC(CN2CCN(Cc3ccc4c(c3)C(=O)N(C3CCC(=O)NC3=O)C4=O)C(C(F)(F)F)C2)=C(c2ccc(Cl)cc2)C1 (stereo not drawn) [GT-06103, 5-((4-((4′-chloro-5,5-dimethyl-3,4,5,6-tetrahydro-[1,1′-biphenyl]-2-yl)methyl)-2-(trifluoromethyl)piperazin-1-yl)methyl)-2-(2,6-dioxopiperidin-3-yl)isoindoline-1,3-dione]	B (B represents a residual substrate protein level of >50%)	B (B represents a residual substrate protein level of >50%)	A (A represents a residual substrate protein level of <50%)	–
O=C1CCC(N2C(=O)c3ccc(C(=O)N4CCN(Cc5ccc(-c6ccc(Cl)cc6)cc5)CC4)cc3C2=O)C(=O)N1 (stereo not drawn) [GT-05600, 5-(4-((4′-chloro-[1,1′-biphenyl]-4-yl)methyl)piperazine-1-carbonyl)-2-(2,6-dioxopiperidin-3-yl)isoindoline-1,3-dione]	B (B represents a residual substrate protein level of >50%)	B (B represents a residual substrate protein level of >50%)	A (A represents a residual substrate protein level of <50%)	–
CC1(C)CCC(CN2CC3CCC(C2)N3Cc2ccc3c(c2)C(=O)N(C2CCC(=O)NC2=O)C3=O)=C(c2ccc(Cl)cc2)C1 (stereo not drawn) [GT-04719, 5-((3-((4′-chloro-5,5-dimethyl-3,4,5,6-tetrahydro-[1,1′-biphenyl]-2-yl)methyl)-3,8-diazabicyclo[3.2.1]octan-8-yl)methyl)-2-(2,6-dioxopiperidin-3-yl)isoindoline-1,3-dione]	B (B represents a residual substrate protein level of >50%)	B (B represents a residual substrate protein level of >50%)	A (A represents a residual substrate protein level of <50%)	–
CC1(C)CCC(CN2CC3CCC2CN3C(=O)c2ccc3c(c2)C(=O)N(C2CCC(=O)NC2=O)C3=O)=C(c2ccc(Cl)cc2)C1 (stereo not drawn) [GT-05414, 5-(5-((4′-chloro-5,5-dimethyl-3,4,5,6-tetrahydro-[1,1′-biphenyl]-2-yl)methyl)-2,5-diazabicyclo[2.2.2]octane-2-carbonyl)-2-(2,6-dioxopiperidin-3-yl)isoindoline-1,3-dione]	B (B represents a residual substrate protein level of >50%)	A (A represents a residual substrate protein level of <50%)	B (B represents a residual substrate protein level of >50%)	–
CC1(C)CCC(CN2CC3CCC(C2)N3c2ccc3c(c2)CN(C2CCC(=O)NC2=O)C3=O)=C(c2ccc(Cl)cc2)C1 (stereo not drawn) [GT-05430, 3-(5-(3-((4′-chloro-5,5-dimethyl-3,4,5,6-tetrahydro-[1,1′-biphenyl]-2-yl)methyl)-3,8-diazabicyclo[3.2.1]octan-8-yl)-1-oxoisoindolin-2-yl)piperidine-2,6-dione]	B (B represents a residual substrate protein level of >50%)	B (B represents a residual substrate protein level of >50%)	A (A represents a residual substrate protein level of <50%)	–
O=C1CCC(N2C(=O)c3ccc(CN4CCN(Cc5cccc(-c6ccc(Cl)cc6)c5)CC4)cc3C2=O)C(=O)N1 (stereo not drawn) [GT-05630, 5-((4-((4′-chloro-[1,1′-biphenyl]-3-yl)methyl)piperazin-1-yl)methyl)-2-(2,6-dioxopiperidin-3-yl)isoindoline-1,3-dione]	B (B represents a residual substrate protein level of >50%)	A (A represents a residual substrate protein level of <50%)	B (B represents a residual substrate protein level of >50%)	–
CC1(C)CCC(CN2CC3(C2)CN(Cc2ccc4c(c2)C(=O)N(C2CCC(=O)NC2=O)C4=O)C3)=C(c2ccc(Cl)cc2)C1 (stereo not drawn) [GT-05675, 5-((6-((4′-chloro-5,5-dimethyl-3,4,5,6-tetrahydro-[1,1′-biphenyl]-2-yl)methyl)-2,6-diazaspiro[3.3]heptan-2-yl)methyl)-2-(2,6-dioxopiperidin-3-yl)isoindoline-1,3-dione]	B (B represents a residual substrate protein level of >50%)	B (B represents a residual substrate protein level of >50%)	B (B represents a residual substrate protein level of >50%)	–
O=C1CCC(N2Cc3cc(CN4CC5CC(C4)N5Cc4ccccc4-c4ccc(Cl)cc4)ccc3C2=O)C(=O)N1 (stereo not drawn) [GT-05704, 3-(5-((6-((4′-chloro-[1,1′-biphenyl]-2-yl)methyl)-3,6-diazabicyclo[3.1.1]heptan-3-yl)methyl)-1-oxoisoindolin-2-yl)piperidine-2,6-dione]	–	–	–	680 nM
O=C1CCC(N2Cc3cc(N4C5CCC4CN(C(=O)c4ccccc4-c4ccc(Cl)cc4)C5)ccc3C2=O)C(=O)N1 (stereo not drawn) [GT-05875, 3-(5-(3-(4′-chloro-[1,1′-biphenyl]-2-carbonyl)-3,8-diazabicyclo[3.2.1]octan-8-yl)-1-oxoisoindolin-2-yl)piperidine-2,6-dione]	–	–	–	510 nM
CC1(C)CCC(C(=O)N2CC3CCC(C2)N3c2ccc3c(c2)CN(C2CCC(=O)NC2=O)C3=O)=C(c2ccc(F)cc2)C1 (stereo not drawn) [GT-05492, 3-(5-(3-(4′-fluoro-5,5-dimethyl-3,4,5,6-tetrahydro-[1,1′-biphenyl]-2-carbonyl)-3,8-diazabicyclo[3.2.1]octan-8-yl)-1-oxoisoindolin-2-yl)piperidine-2,6-dione]	–	–	–	830 nM
CC1(C)CCC(CN2CCC(Nc3ccc4c(c3)CN(C3CCC(=O)NC3=O)C4=O)CC2)=C(c2ccc(Cl)cc2)C1 (stereo not drawn) [GT-05782, 3-(5-((1-((4′-chloro-5,5-dimethyl-3,4,5,6-tetrahydro-[1,1′-biphenyl]-2-yl)methyl)piperidin-4-yl)amino)-1-oxoisoindolin-2-yl)piperidine-2,6-dione]	–	–	–	1760 nM
CC1(C)CCC(CN2C3CCC2CN(Cc2ccc4c(c2F)CN(C2CCC(=O)NC2=O)C4=O)C3)=C(c2ccc(Cl)cc2)C1 (stereo not drawn) [GT-05534, 3-(5-((8-((4′-chloro-5,5-dimethyl-3,4,5,6-tetrahydro-[1,1′-biphenyl]-2-yl)methyl)-3,8-diazabicyclo[3.2.1]octan-3-yl)methyl)-4-fluoro-1-oxoisoindolin-2-yl)piperidine-2,6-dione]	–	–	–	1170 nM
O=C1CCC(N2Cc3cc(CC4CN(Cc5ccccc5-c5ccc(Cl)cc5)C4)ccc3C2=O)C(=O)N1 (stereo not drawn) [GT-03923, 3-(5-((1-((4′-chloro-[1,1′-biphenyl]-2-yl)methyl)azetidin-3-yl)methyl)-1-oxoisoindolin-2-yl)piperidine-2,6-dione]	–	–	–	170 nM
CC1(C)CCC(CN2C3CC2CN(Cc2ccc4c(c2)CN(C2CCC(=O)NC2=O)C4=O)C3)=C(c2ccc(F)cc2)C1 (stereo not drawn) [GT-05509, 3-(5-((6-((4′-fluoro-5,5-dimethyl-3,4,5,6-tetrahydro-[1,1′-biphenyl]-2-yl)methyl)-3,6-diazabicyclo[3.1.1]heptan-3-yl)methyl)-1-oxoisoindolin-2-yl)piperidine-2,6-dione]	–	–	–	250 nM
CC1(C)CCC(CN2CC(=Cc3ccc4c(c3)CN(C3CCC(=O)NC3=O)C4=O)C2)=C(c2ccc(F)cc2)C1 (stereo not drawn) [GT-05483, 3-(5-((1-((4′-fluoro-5,5-dimethyl-3,4,5,6-tetrahydro-[1,1′-biphenyl]-2-yl)methyl)azetidin-3-ylidene)methyl)-1-oxoisoindolin-2-yl)piperidine-2,6-dione]	–	–	–	510 nM
O=C1CCC(N2Cc3cc(CCCN4CCN(Cc5ccccc5-c5ccc(Cl)cc5)CC4)ccc3C2=O)C(=O)N1 (stereo not drawn) [GT-05893, 3-(5-(3-(4-((4′-chloro-[1,1′-biphenyl]-2-yl)methyl)piperazin-1-yl)propyl)-1-oxoisoindolin-2-yl)piperidine-2,6-dione]	–	–	–	1150 nM
